In patent publication US20150238490A1 (Pharmacyclics, Inc., priority 2014, published 2015):
Entries after “also recorded” stand apart in the source; their conditions may differ.

Tests used:
CLL patients = conditions: plasma, previous studies; cited from earlier work
[1] = tested on: OCI-Ly10 cell line (ABC subtype DLBCL); assay: CCL3/CCL4 secretion by DLBCL cell line, supernatant ELISA; format: cell-based, human; conditions: 1 μM ibrutinib, supernatant after 24 h
Procedure: (§1) For BCR stimulation, culture medium was supplemented with 10 μg/mL anti-IgM (polyclonal goat F(ab′)2 fragments to human IgM, MP Biomedicals) for the indicated time periods.
(§2) All DLBCL cell lines were grown in RPMI 1640 medium (Hyclone) supplemented with glutamine, beta-mercaptoethanol, penicillin/streptomycin and 10% fetal bovine serum, except for OCI-Ly3 and OCI-Ly10, which were maintained in Iscove's modified Dulbecco's medium (Gibco) supplemented with beta-mercaptoethanol, penicillin/streptomycin and 20% heparinized human plasma. All cell lines were grown in a humidified 5% CO2 incubator at 37° C. DLBCL cell lines included TMD8, HBL-1, OCI-Ly10, OCI-Ly3, DB and OCI-Ly19.
(§3) Cell culture supernatant samples from DLBCL cell lines were used after 24 h for the measurement of CCL3 and CCL4 levels for quantification by ELISA using Quantikine Kits (R&D Systems). The absorbance was recorded by a microplate reader (ELx808, Bio-Tek Instruments), and data collection and analysis were performed using Gen5 software Version 1.08 (Bio-Tek Instruments).
(§4) Peripheral blood serum samples were obtained from the tissue bank of the Department of Lymphoma and Myeloma at MDACC or from the University of Nebraska Medical Center. All serum samples were aliquoted and stored at the time of initial referral to each institution. Serum and cell culture supernatant CCL3 and CCL4 levels were quantified by ELISA using Quantikine Kits (R&D Systems) and was conducted at MDACC (Sivina M, Hartmann E, Kipps T J, et al. “CCL3 (MIP-1alpha) plasma levels and the risk for disease progression in chronic lymphocytic leukemia.” Blood. 2011; 117(5):1662-1669.). The absorbance was recorded on a microplate reader (ELx808, Bio-Tek Instruments), and data collection and analysis were performed using Gen5 software Version 1.08 (Bio-Tek Instruments).

[2] = tested on: TMD8 cell line (ABC subtype DLBCL); assay: as above; format: cell-based, human
Procedure: as §1, §2, §3, §4

[3] = tested on: OCI-Ly19 cell line (GCB subtype DLBCL); assay: as above; format: cell-based, human; conditions: 1 μM ibrutinib, supernatant after 24 h
Procedure: as §1, §2, §3, §4

[4] = tested on: OCI-Ly3 cell line (ABC subtype DLBCL, CARD11 mutation); assay: as above; format: cell-based, human; conditions: 1 μM ibrutinib, supernatant after 24 h
Procedure: as §1, §2, §3, §4

[5] = tested on: HBL-1 cell line (ABC subtype DLBCL); assay: as above; format: cell-based, human; conditions: for mean supernatant concentration of CCL3: 24 h
Procedure: as §1, §2, §3, §4

[6] = tested on: DB cell line (GCB subtype DLBCL); assay: as above; format: cell-based, human; conditions: 1 μM ibrutinib, supernatant after 24 h
Procedure: as §1, §2, §3, §4

DLBCL patients = assay: Serum CCL3 and CCL4 pre- and post-treatment in patients with DLBCL; format: in vivo, human; conditions: in most patients
Text: The study included 102 patients from MD Anderson Cancer Center (MDACC) with newly diagnosed DLBCL between January 2009 and February 2011 (MDA test cohort). In addition, a second set of 51 patients from MDACC with newly diagnosed DLBCL was included for validation analysis (MDA validation cohort). Nineteen patients with newly diagnosed DLBCL from the University of Nebraska were also included in the correlation analysis between serum CCL3/CCL4 levels and GCB vs. non-GCB subtype (Nebraska cohort). […] Demographics and other clinical parameters for both MDACC test and validation cohort were obtained at the time of initial referral to MDACC. DLBCL diagnosis was established by institutional pathologists according to the WHO classification. Immunophenotypic classification (GCB vs. non-GCB subtype) of DLBCL was determined by Hans criteria. […]
Peripheral blood serum samples were obtained from the tissue bank of the Department of Lymphoma and Myeloma at MDACC or from the University of Nebraska Medical Center. […] Serum and cell culture supernatant CCL3 and CCL4 levels were quantified by ELISA using Quantikine Kits (R&D Systems) and was conducted at MDACC (Sivina M, Hartmann E, Kipps T J, et al. “CCL3 (MIP-1alpha) plasma levels and the risk for disease progression in chronic lymphocytic leukemia.” Blood. 2011; 117(5):1662-1669.). […]

[7] = 1 μM ibrutinib, alone or with 10 μg/mL anti-IgM, supernatant after 24 h
[8] = ibrutinib titration (3.1-1000 nM) in combination with 10 μg αIgM

| Structure (SMILES) | elevated CCL3 and CCL4 levels after pharmacologic inhibition of BCR signaling (CLL patients) | CCL3 level after ibrutinib treatment [1] | CCL4 level after ibrutinib treatment [1] | CCL3 level after ibrutinib treatment [2, 7] | CCL4 level after ibrutinib treatment [2, 7] | CCL3 level after BCR stimulation, ibrutinib titration ([2]; 1000 nM ibrutinib with 10 μg αIgM, decreased level maintained at 500 nM and 100 nM) | CCL4 level after BCR stimulation, ibrutinib titration ([2]; 1000 nM ibrutinib with 10 μg αIgM, decreased level maintained at 500 nM, 100 nM and 50 nM) | CCL3 level after ibrutinib treatment [3] | CCL4 level after ibrutinib treatment [3] | CCL3 level after ibrutinib treatment [4] | CCL4 level after ibrutinib treatment [4] | mean supernatant concentration of CCL3 ([5]; 1 μM ibrutinib alone (unstimulated cells), baseline 1705.5 pg/mL) | mean supernatant concentration of CCL3 ([5]; 1 μM ibrutinib in combination with 10 μg/mL anti-IgM) | CCL3 level after ibrutinib treatment [5, 7] | CCL4 level after ibrutinib treatment [5, 7] | ibrutinib concentration resulting in the lowest CCL3 level [5, 8] | ibrutinib concentration resulting in the lowest CCL4 level [5, 8] | CCL3 level after ibrutinib treatment [6] | CCL4 level after ibrutinib treatment [6] | high concentrations of serum CCL3 and CCL4 after therapy (DLBCL patients) |
| --- | --- | --- | --- | --- | --- | --- | --- | --- | --- | --- | --- | --- | --- | --- | --- | --- | --- | --- | --- | --- |
| CC[C@H](Nc1ncnc2[nH]cnc12)c1nc2cccc(F)c2c(=O)n1-c1ccccc1 [GS-1101/CAL-101/idelalisib] | rapidly normalize | – | – | – | – | – | – | – | – | – | – | – | – | – | – | – | – | – | – | – |
| C=CC(=O)N1CCC[C@@H](n2nc(-c3ccc(Oc4ccccc4)cc3)c3c(N)ncnc32)C1 [ibrutinib, 1-((R)-3-(4-amino-3-(4-phenoxyphenyl)-1H-pyrazolo[3,4-d]pyrimidin-1-yl)piperidin-1-yl)prop-2-en-1-one] | – | sensitive to inhibition; also recorded: significant decrease | sensitive to inhibition; also recorded: significant decrease | abrogated; also recorded: significantly decreased | abrogated; also recorded: significantly decreased | decreased | decreased | did not respond; also recorded: unaffected | did not respond; also recorded: unaffected | did not respond; also recorded: unaffected | did not respond; also recorded: unaffected | 313.2 (±6.8) pg/mL | 2029.16 (±26.9) pg/mL | abrogated; also recorded: significantly decreased | abrogated; also recorded: significantly decreased | 500 nM | 500 nM | did not respond; also recorded: unaffected | did not respond; also recorded: unaffected | returned to low levels |
